Laboratory results reported in ChEMBL document CHEMBL3632499, “Synthesis and Antiproliferative Activity Evaluation of the Disulfide-Containing Cyclic Peptide Thiochondrilline C and Derivatives” (J Nat Prod, 2015).
Positions of bridges follow the written chain, without caps; N, C: chain ends. Non-standard residues stand in square brackets, D forms with d. Residues, ends and D or L forms follow the SMILES beside them. Chains are numbered I, II in the order given. *: point of attachment. Quinaldoyl(3-OH) = O=C(c1nc2ccccc2cc1O)*; NMeC = CN[C@@H](CS)C(=O)O

Tested on: A549
Assay: Cytotoxicity against human A549 cells
Format: functional, cell-based

For `CSC[C@H]1C(=O)SC[C@@H](NC(=O)c2nc3ccccc3cc2O)C(=O)NCC(=O)N(C)[C@H]2CSSC[C@@H](C(=O)N1C)N(C)C(=O)CNC(=O)[C@H](NC(=O)c1nc3ccccc3cc1O)CSC(=O)[C@H](CSC)N(C)C2=O` [THIOCORALINE A] (I: {Quinaldoyl(3-OH)}-[dC]G[NMeC][NMeC](Me) / II: {Quinaldoyl(3-OH)}-[dC]G[NMeC][NMeC](Me); thioester I:1-II:C, I:C-II:1; disulfide I:3-II:3), the EC50 was 0.01 µM.
